Laboratory results taken from EP1117420B1, “PHARMACEUTICAL COMPOSITIONS BASED ON ALPHA-CYCLODEXTRIN FOR THE ORAL ADMINISTRATION OF LH-RH ANALOGUES” (LABORATOIRE THERAMEX S.A., priority 1998, dated 2000).

Columns and labels:
LH-RH receptors [1] = target: T1, LH-RH receptors (Rattus norvegicus, UniProt P30969); test: inhibition of ovulation by oral administration (ova in oviduct on day of expected estrus); format: in vivo, Wistar rats; parameters: from tissue; host or cells: pituitary of living adult female Wistar rats (in vivo)
T1 sequence (P30969 1-327): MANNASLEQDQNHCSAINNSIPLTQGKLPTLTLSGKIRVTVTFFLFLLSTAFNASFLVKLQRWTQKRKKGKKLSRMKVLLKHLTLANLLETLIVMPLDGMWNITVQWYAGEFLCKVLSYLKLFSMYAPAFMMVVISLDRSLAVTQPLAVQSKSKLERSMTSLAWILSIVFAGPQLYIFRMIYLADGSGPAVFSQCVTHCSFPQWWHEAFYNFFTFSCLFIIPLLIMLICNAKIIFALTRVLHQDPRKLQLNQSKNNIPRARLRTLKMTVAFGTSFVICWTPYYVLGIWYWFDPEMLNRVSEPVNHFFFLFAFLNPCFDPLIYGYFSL
Description: The peptides according to the general formula (I') exert an antagonist activity upon the LH-RH receptors in vivo, resulting in particular in the inhibition of ovulation.
The influence of α-, β- and γ-CD was tested on the activity of antide (an example of LH-RH peptide antagonist) when orally admininisted by gavage to normally cycling adult female Wistar rats between 1:30 and 3:00 p.m. on the day of proestrus, after at least two full regular estrous cycles as monitored by daily vaginal smears. The antiovulatory efficacy was checked the next morning, on the day of expected estrus, by looking for ova in the oviduct of treated females. The presence of at least one ovum attested that some degree of spontaneous ovulation did occur, and only the total absence of ovum was considered as effective LH-RH antagonist-induced inhibition of ovulation. Antide was solubilized in a vehicle consisting of 20% (vol/vol) propylene glycol in water already containing […], to which 10% (wt/vol) of either α-, β- or γ-CD was then added.
Each 5 mg powder vial of antide (from Bachem, Bubendorf, Switzerland) containing 4.2434 mg net peptide was dissolved in a mixture of 2.122 ml propylene glycol with 8.487 ml water containing 0.1% bovine albumin. To each 10.609 ml solution of antide (400 µg/ml), 1.061 g of either α-, β- or γ-CD was directly added to obtain a 10% concentration. Each female rat received the same volume of 1 ml of test formulation by gavage.
The same volume of administration was used for the doses of 200 and 600 µg/rat.

LH-RH receptors [2] = target: T1, LH-RH receptors; test: stimulation of LH secretion after oral gavage (plasma LH by radioimmunoassay); format: in vivo, Sprague-Dawley rats; parameters: from tissue; host or cells: pituitary of living adult male Sprague-Dawley rats (in vivo); settings: 2 nmoles/rat by oral gavage, blood 2 hours after administration, male rats
Description: […] […] Total plasma testosterone (Diagnostic System Laboratories) and LH (Amersham Pharmacia Biotech) determinations were performed by radioimmunoassay. In screening 2-hour experiments, each group comprised between 6 and 8 rats; each time point of the kinetic study was studied on four animals.
Two hours after administration, plasma LH levels were measured on eight rats per dose group (Figure 7).
(§1) Then, the α-CD solution was added to fill the flask up to 10 ml to make a 2 nmol/ml solution of which 1ml was administered by oral gavage to each rat.

LH-RH receptors [3] = target: T1, LH-RH receptors; test: stimulation of testosterone secretion after oral gavage (plasma testosterone by radioimmunoassay); format: in vivo, Sprague-Dawley rats; parameters: from tissue; host or cells: pituitary of living adult male Sprague-Dawley rats (in vivo); settings: for total plasma testosterone (nmol/l) (m ± sem): 2 nmoles/rat by oral gavage, blood 2 hours after administration, male rats; for stimulation of testosterone secretion: 5 Ng/kg oral, 2 hours, Figure 3
Description: For screening purposes, blood samples were drawn 2 hours after oral administration of a common dose of 2 nmoles/rat of LH-RH peptide agonists in an aqueous solution containing 10 or 100 mM of α-CD (Tables 1 and 2; Figures 1, 4 and 6). […] Total plasma testosterone (Diagnostic System Laboratories) and LH (Amersham Pharmacia Biotech) determinations were performed by radioimmunoassay. In screening 2-hour experiments, each group comprised between 6 and 8 rats; each time point of the kinetic study was studied on four animals.
All α-CD derivatives were purchased from Cyclolab (Budapest, Hungary).
as §1
After overnight magnetic stirring at room temperature, each solution was given to rats by oral gavage in a 4 ml/kg volume to administer the same dose of 5 µg/kg of example 2 without or with increasing concentrations of α-CD.

[4] = vehicle + α-CD (10%), antide 200 µg/rat p.o.
[5] = vehicle + α-CD (10%), antide 400 µg/rat p.o.
[6] = vehicle + α-CD (10%), antide 600 µg/rat p.o.
[7] = vehicle + β-CD (10%), antide 400 µg/rat p.o.
[8] = vehicle + γ-CD (10%), antide 400 µg/rat p.o.
[9] = vehicle only, antide 200 µg/rat p.o.
[10] = vehicle only, antide 400 µg/rat p.o.
[11] = vehicle only, antide 600 µg/rat p.o.
[12] = without α-CD (standard aqueous vehicle)

| total plasma LH (ng/ml) (m ± sem) (LH-RH receptors [2]; with α-CD (100 mM solution)) [ng/mL] | total plasma LH (ng/ml) (m ± sem) (LH-RH receptors [2]; without α-CD) [ng/mL] | total plasma testosterone (nmol/l) (m ± sem) (LH-RH receptors [3]; with α-CD (100 mM solution)) | total plasma testosterone (nmol/l) (m ± sem) (LH-RH receptors [3]; [12]) [nmol/L] | Compound | other results |
| --- | --- | --- | --- | --- | --- |
| – | – | – | – | antide | influence of Beta- and γ-CD on the minimal activity of antide (LH-RH receptors [1]; combined with β- or γ-CD (10%), dose level of 400): no influence; animals showing inhibition of ovulation (LH-RH receptors [1]; out of 22 animals, vehicle only, threshold dose of 400): 3; n ovulations/ N treated rats (LH-RH receptors [1]; [4]): 6/8; percentage of inhibition (LH-RH receptors [1]; [4]): 25%; n ovulations/ N treated rats (LH-RH receptors [1]; [5]): 6/22; percentage of inhibition (LH-RH receptors [1]; [5]): 73%; n ovulations/ N treated rats (LH-RH receptors [1]; [6]): 2/8; percentage of inhibition (LH-RH receptors [1]; [6]): 75%; n ovulations/ N treated rats (LH-RH receptors [1]; [7]): 7/7; percentage of inhibition (LH-RH receptors [1]; [7]): 0%; n ovulations/ N treated rats (LH-RH receptors [1]; [8]): 7/7; percentage of inhibition (LH-RH receptors [1]; [8]): 0%; threshold effective dose by oral administration (LH-RH receptors [1]; vehicle only (no cyclodextrin), inhibition of ovulation): 400 µg/rat; n ovulations/ N treated rats (LH-RH receptors [1]; [9]): 8/8; percentage of inhibition (LH-RH receptors [1]; [9]): 0%; n ovulations/ N treated rats (LH-RH receptors [1]; [10]): 19/22; percentage of inhibition (LH-RH receptors [1]; [10]): 14%; n ovulations/ N treated rats (LH-RH receptors [1]; [11]): 5/8; percentage of inhibition (LH-RH receptors [1]; [11]): 44% |
| 10.1 ± 2.54 | 1.4 ± 0.10 | 61.9 ± 6.01 nmol/L | 25.8 ± 3.14 | triptorelin | – |
| – | – | 61.8 ± 5.10 nmol/L | 28.3 ± 4.56 | CCNC(=O)[C@@H]1CCCN1C(=O)[C@H](CCCNC(=N)N)NC(=O)[C@H](CC(C)C)NC(=O)[C@@H](C)NC(=O)[C@H](Cc1ccc(O)cc1)NC(=O)[C@H](CO)NC(=O)[C@H](Cc1c[nH]c2ccccc12)NC(=O)[C@H](Cc1c[nH]cn1)NC(=O)[C@@H]1CCC(=O)N1 [Example 6, [D-Ala^6, desGly^10-ProNet^9]LH-RH] | – |
| 16.1 ± 5.22 | 1.4 ± 0.17 | 67.9 ± 9.11 nmol/L | 30.1 ± 5.86 | CCNC(=O)[C@@H]1CCCN1C(=O)[C@H](CCCNC(=N)N)NC(=O)[C@H](CC(C)(C)C)NC(=O)[C@@H](Cc1ccccc1)NC(=O)[C@H](Cc1ccc(O)cc1)NC(=O)[C@H](CO)NC(=O)[C@H](Cc1c[nH]c2ccccc12)NC(=O)[C@H](Cc1c[nH]cn1)NC(=O)[C@@H]1CCC(=O)N1 [Example 4, [D-Phe^6, Npg7, desGly^10-ProNEt^9]LH-RH] | – |
| 3.2 ± 0.56 | 1.4 ± 0.10 | 52.1 ± 6.99 nmol/L | 15.8 ± 4.24 | [Npg^7]triptorelin [Example 5] | – |
| 19.7 ± 3.70 | 1.6 ± 0.14 | 72.8 ± 4.64 nmol/L | 23.0 ± 8.54 | CCNC(=O)[C@@H]1CCCN1C(=O)[C@H](CCCNC(=N)N)NC(=O)[C@H](CC(C)(C)C)NC(=O)[C@@H](C)NC(=O)[C@H](Cc1ccc(O)cc1)NC(=O)[C@H](CO)NC(=O)[C@H](Cc1c[nH]c2ccccc12)NC(=O)[C@H](Cc1c[nH]cn1)NC(=O)[C@@H]1CCC(=O)N1 [Example 2, [D-Ala^6, Npg7, desGly^10-ProNEt^9]LH-RH] | stimulation of testosterone secretion (LH-RH receptors [3]; with 5% (51.4 mM) α-CD): did enhance; stimulation of testosterone secretion (LH-RH receptors [3]; with 10% (103 mM) as well as 14% (144 mM) α-CD): maximal level |

| Compound | total plasma LH (ng/ml) (m ± sem) (LH-RH receptors [2]; with α-CD (100 mM solution)) [ng/mL] | total plasma LH (ng/ml) (m ± sem) (LH-RH receptors [2]; without α-CD) [ng/mL] | total plasma testosterone (nmol/l) (m ± sem) (LH-RH receptors [3]; with α-CD (100 mM solution)) | total plasma testosterone (nmol/l) (m ± sem) (LH-RH receptors [3]; [12]) [nmol/L] | other results |
| --- | --- | --- | --- | --- | --- |
| goserelin | – | – | 66.5 ± 6.19 nmol/L | 21.4 ± 5.99 | – |
| [(S)spirolactam(Pro^6, Npg^7), desGly^10-ProNEt^9]LH-RH [Example 1] | 7.1 ± 1.68 | 1.5 ± 0.19 | 58.0 ± 8.75 nmol/L | 40.1 ± 6.78 | – |
| deslorelin | – | – | marked potency | 9.7 ± 2.41 | total plasma testosterone (nmol/l) (m ± sem) (LH-RH receptors [3]; with α-CD (100 mM solution), listed as Deslorelin (α-CD)): 48.2 ± 7.29 nmol/L; total plasma testosterone (nmol/l) (m ± sem) (LH-RH receptors [3]; without α-CD (standard aqueous vehicle), listed as deslorelin): inactive |
